Consider 1 molecule from publication PMC5902630, “A Firefly Luciferase Dual Color Bioluminescence Reporter Assay Using Two Substrates To Simultaneously Monitor Two Gene Expression Events” (Scientific Reports, 2018).

One test addresses PLG3 (Photinus pyralis, UniProt P08659, F250T/L291I/Y340F/F465R, form not given). Nature of the test: bioluminescence burst (maximal light intensity), Michaelis-Menten fit. The settings on record: 2 mM Mg-ATP, 50 mM Tricine, pH 7.8; read-out: Km (μM) / BtLH2. The format is biochemical. The source says:
bioluminescence burst (maximal light intensity), Michaelis-Menten fit on PLG3

The target in the next test is PLR1 (Photinus pyralis, UniProt P08659, Y255F/S284T, form not given). The description is as above. Type of test: biochemical. As to conditions: 2 mM Mg-ATP, 50 mM Tricine, pH 7.8; read-out: Km (μM) / BtLH2. The source says: bioluminescence burst (maximal light intensity), Michaelis-Menten fit on PLR1
PLR1, sequence (P08659 whole entry Y255F/S284T, form open): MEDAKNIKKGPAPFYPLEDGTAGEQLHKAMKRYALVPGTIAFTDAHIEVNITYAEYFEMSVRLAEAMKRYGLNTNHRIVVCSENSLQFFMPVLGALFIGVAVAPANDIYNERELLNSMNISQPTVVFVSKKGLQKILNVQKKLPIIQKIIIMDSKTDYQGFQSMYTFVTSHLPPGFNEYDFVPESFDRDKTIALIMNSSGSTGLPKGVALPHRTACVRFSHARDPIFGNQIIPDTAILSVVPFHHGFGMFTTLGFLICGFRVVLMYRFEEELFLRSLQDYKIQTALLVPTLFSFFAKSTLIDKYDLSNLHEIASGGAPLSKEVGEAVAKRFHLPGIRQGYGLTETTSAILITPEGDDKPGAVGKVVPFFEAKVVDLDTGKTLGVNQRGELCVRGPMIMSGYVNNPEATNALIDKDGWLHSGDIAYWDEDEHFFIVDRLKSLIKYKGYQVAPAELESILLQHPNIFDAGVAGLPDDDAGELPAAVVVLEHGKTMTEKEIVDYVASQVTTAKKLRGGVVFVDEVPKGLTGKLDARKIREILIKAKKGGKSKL

PLG3, sequence (P08659 whole entry F250T/L291I/Y340F/F465R, form open): as the sequence (P08659 whole entry Y255F/S284T, form open) above, with F250T, F255Y, T284S, L291I, Y340F, F465R counted along it

On to `O=C(O)[C@H]1CSC(c2cc3ccc(O)cc3s2)=N1` [BtLH2], for which the Km on PLG3 turned out to be 5 ± 1 µM; on PLR1, 28 ± 3 µM.
